From patent publication US20040197333A1, “Use of TGF-beta antagonists to inhibit tumor cell formation or progression” (Cornell Research Foundation, Inc., priority 2000, published 2004) come the findings set out here.

The subject of this test is A-549 cells. As to the kind of experiment: Scanning electron microscopy of cell morphology (invasive phenotype). The format is cell-based, human. As to conditions: 2ngm^−1 recombinant TGF-β1 protein. The text has this: Scanning electron microscopy. […] Cells were fixed with PBS, pH 7.4, containing 2.0% glutaraldehyde, and processed as previously described (Ref 17). Samples were examined using a JEOL 25SIII electron microscope.
A-549 cells express functional receptors for TGF-β, and their growth and functions are regulated by TGF-β (refs. 7 and 8). The experiments with A-549 cells were established ex vivo to avoid any confounding effects of CsA-associated inhibition of in vivo immune surveillance mechanism(s).

Take “recombinant TGF-β1 protein: recombinant TGF-β1 protein added to A-549 cells”: the “morphological alterations in A-549 cells” value is “induced morphological alterations in A-549 cells that were similar to those elicited by CsA”.
